Source: publication PMC7708037, “Targeting OGG1 arrests cancer cell proliferation by inducing replication stress” (Nucleic Acids Research, 2020)

Key:
[1] = system: replication fork rate in A3 cells; test: DNA fibre assay; type: cell-based, human; details: 10 μM, 48 and 72 h
Method: A3 Cells were exposed to either 0.1% DMSO or 10 μM TH5487 for the indicated times, pulse-labeled with 25 μM 5-chloro-2′-deoxyuridine (CldU) for 30 min, washed with medium and pulse-labeled with 250 μM 5-iodo-2′-deoxyuridine (IdU) for 30 min. Alternatively, control or OGG1 shRNA expression was induced with 1 μg/ml doxycyline for 48 h or 96 h before pulse labelling. CldU was detected by incubating acid-treated fiber spreads in Ibidi μ-Slide VI 0.4 (Ibidi, 80606) with rat anti-BrdU monoclonal antibody (AbD Serotec; cat# MCA2060), whereas IdU was detected using mouse anti-BrdU monoclonal antibody (BD Biosciences; cat# 347580) for 1 h at 37°C. […] The lengths of red (AF 555) or green (AF 488) labeled patches were measured using the ImageJ software (National Institutes of Health; http://rsbweb.nih.gov/ij/) and arbitrary length values were converted into micrometers.
Figure 5. […] A3 cells were treated with 20 mM KBrO3 for 1 h or with 10 μM TH5487 for the indicated times, and the amount of genomic 8-oxodG was quantified with LC-MS/MS. […] A3 cells were treated with 10 μM TH5487 for 72 h and strand-breaks and OGG1 substrate lesions were analyzed with the OGG1-modified Comet assay. […] Cells were treated as in B, and the tail moment of the cells were analyzed using blinded automatic analysis (n = 200 per condition from two independent experiments). […] At least 300 forks were scored per condition. […]

[2] = set-up: method as in PMID 30442810; details: cited from earlier work
[3] = system: peripheral blood mononuclear cells (PBMCs); test: PBMC proliferation / tolerance; type: cell-based
Method: Peripheral blood mononuclear Cells (PBMC) were isolated from peripheral whole blood from controls using Histopaque®-1077 (Sigma-Aldrich, San Luis, MO, USA) following the manufacturer's instructions. Briefly, peripheral blood was collected in heparin and diluted with equal amount of PBS. Next, blood was centrifuged with Histopaque®-1077 at 400 × g for 30 min at room temperature and the PBMC layer was recovered. All steps were processed within 4 h after blood extraction.
PMBCs and CD34- fraction (CB) were cultured in the presence of PHA-L (Sigma-Aldrich, ref: 11249738001) or Dynabeads® Human T-Activator CD3/CD28 (Thermofisher scientific, ref: 11131D) for the activation and expansion of human T cells according to the manufacturer's instructions. […]
experiments (Supplementary Table S1).
PBMCs from two donors were activated using Dynabeads and exposed to 10 µM TH5487 during 72 h […]
to follow cell numbers. […] CD3+ T-cells were activated with Dynabeads and treated with DMSO or TH5487 for 6 days, or 25 µM camptothecin for 24 h as a technical control. Survival was assessed by flow cytometry. Data are three technical replicates from one donor, representative of four individuals. Paired, two-sided T-tests were used to assess significance (ns, non-significant, ****, P<0.0001). I. to K. Gating strategy for identification of dead cells. CD3+ cells were stained with Annexin V and Sytox Blue. […]

O=C(Nc1ccc(I)cc1)N1CCC(n2c(=O)[nH]c3c(Br)cccc32)CC1 [TH5487]
Replication fork rate [1]: marked reduction
Fraction associated with plasma proteins [2]: more than 99%
Tolerance by resting and activated PBMCs ([3]; 10 μM, healthy donors): well tolerated
Proliferation of activated PBMCs ([3]; Dynabeads-activated PBMCs from two donors, 10 µM, 72 h): does not affect proliferation
